Here are results for seven molecules from US20240059753A1, “COMPOSITIONS INCLUDING MULTI-AGONIST PEPTIDES AND METHODS OF MANUFACTURE AND USE” (Pep2Tango Therapeutics Inc., priority 2022, published 2024).

Structures can show the parent of a compound that is named as a salt. Numbered stars: 1 amine (or outer) side, 2 acyl side, 3 side chain; on linkers, the order of the positions; unused ones are H or OH. Bridge positions count the residues as written; N and C are the ends. Square brackets hold non-standard residues; d marks the D form. Side chains are listed from the residue outwards. * marks the point of attachment. C20 diacid = O=C(O)CCCCCCCCCCCCCCCCCCC(=O)*; C18 diacid = O=C(O)CCCCCCCCCCCCCCCCC(=O)*; γGlu = O=C(O)[C@H](CCC(=O)[*:2])N[*:1]; AEEA = NCCOCCOCC(=O)O; Aib = CC(C)(N)C(=O)O

One experiment addresses Human GLP-1R (Homo sapiens, UniProt P43220). The experiment in a line: GPCR cell-based cAMP assay, human GLP-1 receptor. Set-up: expressed in transfected cells; host or cells: CHO-K1, stably transfected. To be noted: stably transfected CHO-Kl cells, 0.1% casein. The procedure:
(§1) Experimental protocol: Cells were seeded in a total volume of 20 μL into white walled, 384-well microplates and incubated at 37° C. overnight prior to testing. Prior to testing cell plating media was exchanged with 10 μL of Assay buffer (HBSS+10 mM HEPES). All compounds were run in assay buffer containing 0.1% casein. Briefly, intermediate dilution of sample stocks was performed to generate 4× sample in assay buffer. 5 μL of 4× sample was added to cells and incubated at 37° C. for 30 minutes. Final assay vehicle concentration was 1%. […] Microplates were read following signal generation with PerkinElmer Envision instrument for chemiluminescent signal detection.
(§2) The results are expressed as a percent efficacy relative to the maximum response of the control ligand.
Background: cAMP levels reflect the balance of adenylyl cyclase and phosphodiesterase activity.

In another experiment the target is T1, Human CalcitoninR (Homo sapiens, UniProt P30988).
T1 construct: expressed in transfected cells; host or cells: CHO-K1, stably transfected
T1 sequence (P30988 25-474): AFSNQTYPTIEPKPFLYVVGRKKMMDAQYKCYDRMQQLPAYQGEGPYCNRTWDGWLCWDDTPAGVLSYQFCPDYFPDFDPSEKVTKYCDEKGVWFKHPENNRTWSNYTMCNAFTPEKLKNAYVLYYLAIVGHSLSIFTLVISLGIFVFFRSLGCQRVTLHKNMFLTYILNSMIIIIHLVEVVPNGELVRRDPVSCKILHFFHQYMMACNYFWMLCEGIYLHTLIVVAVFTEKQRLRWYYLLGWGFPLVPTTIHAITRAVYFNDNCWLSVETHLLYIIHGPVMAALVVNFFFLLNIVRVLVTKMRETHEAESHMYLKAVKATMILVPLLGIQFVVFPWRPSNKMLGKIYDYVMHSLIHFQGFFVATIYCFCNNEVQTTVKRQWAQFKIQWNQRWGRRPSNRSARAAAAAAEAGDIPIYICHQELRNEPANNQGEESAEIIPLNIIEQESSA
The experiment in a line: GPCR cell-based cAMP assay, human calcitonin receptor. To be noted: stably transfected CHO-Kl cells, 0.1% casein. Here is the method:
as §1, §2

Another experiment concerns the target T2, Human Calc/RAMP3R (AMY3) (Homo sapiens, UniProt O60896+P30988).
T2 construct: expressed in transfected cells; host or cells: CHO-K1, stably transfected
T2 sequence (P30988 25-474): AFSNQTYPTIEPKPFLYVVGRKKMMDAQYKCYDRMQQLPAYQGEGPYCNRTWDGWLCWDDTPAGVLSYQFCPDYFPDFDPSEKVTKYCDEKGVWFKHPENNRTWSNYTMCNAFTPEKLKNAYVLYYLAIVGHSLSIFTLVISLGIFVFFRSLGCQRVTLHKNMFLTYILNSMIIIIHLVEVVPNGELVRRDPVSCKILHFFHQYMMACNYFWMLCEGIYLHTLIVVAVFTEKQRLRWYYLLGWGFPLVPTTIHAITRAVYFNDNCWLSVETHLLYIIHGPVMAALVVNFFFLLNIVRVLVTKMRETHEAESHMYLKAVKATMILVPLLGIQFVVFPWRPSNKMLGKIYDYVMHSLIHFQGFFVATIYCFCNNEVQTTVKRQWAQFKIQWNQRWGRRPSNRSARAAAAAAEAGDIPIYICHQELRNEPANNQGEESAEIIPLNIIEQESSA
T2 sequence (O60896 24-148 partner): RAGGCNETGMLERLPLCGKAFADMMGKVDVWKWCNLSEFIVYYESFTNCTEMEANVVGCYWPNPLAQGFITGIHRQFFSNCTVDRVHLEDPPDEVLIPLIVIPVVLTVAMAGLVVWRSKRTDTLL
Put plainly: GPCR cell-based cAMP assay, human AMY3 receptor. To be noted: stably transfected CHO-Kl cells, 0.1% casein. Here is the method: as §1, §2

The target of a further experiment is T3, Human GIPR (Homo sapiens, UniProt P48546).
T3 construct: expressed in transfected cells; host or cells: CHO-K1, stably transfected
T3 sequence (P48546 22-466): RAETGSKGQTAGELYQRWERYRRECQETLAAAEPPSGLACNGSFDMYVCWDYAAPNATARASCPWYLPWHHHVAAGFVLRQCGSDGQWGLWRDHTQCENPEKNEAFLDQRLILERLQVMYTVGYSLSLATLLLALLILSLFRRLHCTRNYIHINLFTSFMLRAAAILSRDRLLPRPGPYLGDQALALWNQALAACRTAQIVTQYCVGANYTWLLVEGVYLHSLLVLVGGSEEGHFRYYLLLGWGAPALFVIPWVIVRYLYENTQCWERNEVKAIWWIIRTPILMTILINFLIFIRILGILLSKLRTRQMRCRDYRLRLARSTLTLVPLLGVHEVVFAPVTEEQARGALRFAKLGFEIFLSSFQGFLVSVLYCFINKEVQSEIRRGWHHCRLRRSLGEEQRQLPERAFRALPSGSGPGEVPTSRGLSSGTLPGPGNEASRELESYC
Put plainly: GPCR cell-based cAMP assay, human GIP receptor. To be noted: stably transfected CHO-Kl cells, 0.1% casein. Here is the method:
as §1, §2

The subject of a further experiment is 4 h fasted mice. The experiment in a line: Blood glucose after single administration of peptides. Type of experiment: in vivo. Here is the method:
Differences were considered statistically significant at p<0.05. Data analysis was carried out with GraphPad software (GraphPad Prism).

Human GLP-1R, sequence (P43220 24-463): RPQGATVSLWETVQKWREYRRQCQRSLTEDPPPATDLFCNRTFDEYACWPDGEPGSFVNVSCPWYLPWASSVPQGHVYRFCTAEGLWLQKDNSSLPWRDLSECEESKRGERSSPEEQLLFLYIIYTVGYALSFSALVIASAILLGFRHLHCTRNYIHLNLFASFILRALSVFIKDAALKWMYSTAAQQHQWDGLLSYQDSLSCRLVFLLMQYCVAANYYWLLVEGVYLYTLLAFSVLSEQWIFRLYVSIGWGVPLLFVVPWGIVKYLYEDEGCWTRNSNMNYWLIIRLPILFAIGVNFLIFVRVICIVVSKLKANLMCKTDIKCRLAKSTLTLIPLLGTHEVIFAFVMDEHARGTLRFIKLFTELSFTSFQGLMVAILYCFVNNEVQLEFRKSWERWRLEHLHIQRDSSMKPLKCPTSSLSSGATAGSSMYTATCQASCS

For orientation: EC50 means the concentration that produces a half-maximal response. Consider “Y[Aib]EGTFTSDYSI[Aib]LDKIAQQAFVQWLIAGGPSSGAPPPSKCNTATCVLGRLSQELHRLQTYPRTNTK([AEEA-AEEA-γGlu-C18 diacid])SNTY-NH2 (disulfide 41-46 (inferred)) [SEQ ID NO. 52, Y-Aib-E-G-T-F-T-S-D-Y-S-I-Aib-LDKIAQQAFVQWLIAGGPSSGAPPPSKCNTATCVLGRLSQELHRLQTYPRTNTK*-S-N-T-Y-NH2-acetate salt (wherein K* is Lys(AEEAc-AEEAc-γ-Glu-17-carboxyheptadecanoyl))]”, for which the concentration giving a half-maximal response (EC50) on Human GLP-1R is 0.59 nM; at Human CalcitoninR, 0.694 nM; at Human Calc/RAMP3R (AMY3), 1.24 nM; on Human GIPR, 0.147 nM.

On to “Y[Aib]EGTFTSDYSI[Aib]LDKIAQQAFVQWLIAGGPSKCNTATCATQK([AEEA-AEEA-γGlu-C18 diacid])LAEFLRHSSNNFGPILPPTNVGSHTP-NH2 (disulfide 34-39 (inferred)) [SEQ ID NO. 56, Y-Aib-E-G-T-F-T-S-D-Y-S-I-Aib-LDKIAQQAFVQWLIAGGPSKCNTATCATQK*-LAEFLRHSSNNFGPILPPTNVGSHTP-NH2-acetate salt (wherein K* = Lys(AEEAc-AEEAc-γ-Glu-17-carboxyheptadecanoyl))]”, for which the EC50 on Human GLP-1R came out at 1 nM; on Human GIPR, 0.029 nM.

As to “Y[Aib]EGTFTSDYSI[Aib]LDKIAQQAFVQWLIAGGPSSGAPPPSCNTATCVLGRLSQELHRLQTYPRTNTGK([AEEA-AEEA-γGlu-C18 diacid])NTY-NH2 (disulfide 40-45 (inferred)) [SEQ ID NO. 45, Y-Aib-E-G-T-F-T-S-D-Y-S-I-Aib-LDKIAQQAFVQWLIAGGPSSGAPPPSCNTATCVLGRLSQELHRLQTYPRTNTGK*-N-T-Y-NH2-acetate salt (wherein K* is Lys(AEEAc-AEEAc-γ-Glu-17-carboxyheptadecanoyl))]”, the EC50 was 0.416 nM on Human GLP-1R, 0.106 nM at Human CalcitoninR, 0.333 nM on Human Calc/RAMP3R (AMY3) and 0.041 nM on Human GIPR.

For Cagrilintide [reference compound], the “Blood glucose, 120 min” value in the experiment on 4 h fasted mice (4 h fasted mice, single s.c. 10 nmol/Kg, 120 min after injection, mean ± SEM) was determined as 189.7 ± 5.52 mg/dL. Also, the “Blood glucose, 240 min” value with 4 h fasted mice (4 h fasted mice, single s.c. 10 nmol/Kg, 240 min after injection, mean ± SEM) amounted to 164.6 ± 6.48 mg/dL. The “Blood glucose, Time 0” value in the experiment on 4 h fasted mice (4 h fasted mice, single s.c. 10 nmol/Kg, Time 0 (baseline), mean ± SEM) is given as 169.0 ± 3.45 mg/dL. For the same molecule, the “Significantly reduced blood glucose at 120 min and 240 min compared to time 0” value in the experiment with 4 h fasted mice (single s.c. 10 nmol/kg) is reported as “not”.

Take “Y[Aib]EGTFTSDYSI[Aib]LDKIAQQAFVQWLIAGGPSASHLSTAVLGK([AEEA-AEEA-γGlu-C18 diacid])LS[Aib]ELHKLEDYPRTDVGAESP-NH2 [SEQ ID NO. 57, Y-Aib-E-G-T-F-T-S-D-Y-S-I-Aib-LDKIAQQAFVQWLIAGGPSASHLSTAVLGK*-L-S-Aib-E-L-H-K-L-E-D-Y-P-R-T-D-V-G-A-E-S-P-NH2-acetate salt (wherein K* = Lys(AEEAc-AEEAc-γ-Glu-17-carboxyheptadecanoyl))]”: the EC50 on Human GLP-1R was 0.724 nM; at Human CalcitoninR, 0.044 nM; on Human Calc/RAMP3R (AMY3) it was 0.152 nM; at Human GIPR, 0.047 nM.

As to `CC[C@H](C)[C@H](NC(=O)[C@H](CC(C)C)NC(=O)[C@H](Cc1c[nH]c2ccccc12)NC(=O)[C@H](CCC(N)=O)NC(=O)[C@@H](NC(=O)[C@H](Cc1ccccc1)NC(=O)[C@H](C)NC(=O)[C@H](CCC(N)=O)NC(=O)[C@H](CCC(N)=O)NC(=O)[C@H](C)NC(=O)[C@@H](NC(=O)[C@H](CCCCN)NC(=O)[C@H](CC(=O)O)NC(=O)[C@H](CC(C)C)NC(=O)C(C)(C)NC(=O)[C@@H](NC(=O)[C@H](CO)NC(=O)[C@H](Cc1ccc(O)cc1)NC(=O)[C@H](CC(=O)O)NC(=O)[C@H](CO)NC(=O)[C@@H](NC(=O)[C@H](Cc1ccccc1)NC(=O)[C@@H](NC(=O)CNC(=O)[C@H](CCC(=O)O)NC(=O)C(C)(C)NC(=O)[C@@H](N)Cc1ccc(O)cc1)[C@@H](C)O)[C@@H](C)O)[C@@H](C)CC)[C@@H](C)CC)C(C)C)C(=O)N[C@@H](C)C(=O)NCC(=O)NCC(=O)N1CCC[C@H]1C(=O)N[C@@H](CO)C(=O)N[C@@H](CCCCNC(=O)COCCOCCNC(=O)COCCOCCNC(=O)CC[C@H](NC(=O)CCCCCCCCCCCCCCCCC(=O)O)C(=O)O)C(=O)N[C@H]1CSSC[C@@H](C(=O)N[C@@H](C)C(=O)N[C@H](C(=O)N[C@@H](CCC(N)=O)C(=O)N[C@@H](CCCNC(=N)N)C(=O)N[C@@H](CC(C)C)C(=O)N[C@@H](C)C(=O)N[C@@H](CCC(=O)O)C(=O)N[C@@H](Cc2ccccc2)C(=O)N[C@@H](CC(C)C)C(=O)N[C@@H](CCCNC(=N)N)C(=O)N[C@@H](Cc2c[nH]cn2)C(=O)N[C@@H](CO)C(=O)N[C@@H](CO)C(=O)N[C@@H](CC(N)=O)C(=O)N[C@@H](CC(N)=O)C(=O)N[C@@H](Cc2ccccc2)C(=O)NCC(=O)N2CCC[C@H]2C(=O)N[C@H](C(=O)N[C@@H](CC(C)C)C(=O)N2CCC[C@H]2C(=O)N2CCC[C@H]2C(=O)N[C@H](C(=O)N[C@@H](CC(N)=O)C(=O)N[C@H](C(=O)NCC(=O)N[C@@H](CO)C(=O)N[C@@H](Cc2c[nH]cn2)C(=O)N[C@H](C(=O)N2CCC[C@H]2C(N)=O)[C@@H](C)O)C(C)C)[C@@H](C)O)[C@@H](C)CC)[C@@H](C)O)NC(=O)[C@H]([C@@H](C)O)NC(=O)[C@H](C)NC(=O)[C@H]([C@@H](C)O)NC(=O)[C@H](CC(N)=O)NC1=O` [SEQ ID NO. 55, Y-Aib-E-G-T-F-T-S-D-Y-S-I-Aib-LDKIAQQAFVQWLIAGGPSK*-CNTATCATQRLAEFLRHSSNNFGPILPPTNVGSHTP-NH2-acetate salt (wherein K* = Lys(AEEAc-AEEAc-γ-Glu-17-carboxyheptadecanoyl))], the EC50 on Human GLP-1R was 0.324 nM; at Human CalcitoninR it was 44.2 nM; on Human Calc/RAMP3R (AMY3) it was 46.1 nM; on Human GIPR, 0.019 nM.

B1: Y-Aib-E-G-T-F-T-S-D-Y-S-I-Aib-LDKIAQQAFVQWLIAGGPSSGAPPPSCNTATCVLGRLSQELHRLQTYPRTNTGK*-N-T-Y-NH2-acetate salt (wherein K* = … (peptide)
chain: Y[Aib]EGTFTSDYSI[Aib]LDKIAQQAFVQWLIAGGPSSGAPPPSCNTATCVLGRLSQELHRLQTYPRTNTGK([γGlu-γGlu-C20 diacid])NTY-NH2
modifications: also: acetate salt
On to B1, for which the concentration giving a half-maximal response (EC50) with Human GLP-1R was 0.854 nM; with Human CalcitoninR, 0.388 nM; in the experiment with Human Calc/RAMP3R (AMY3), 0.218 nM; with Human GIPR it was 0.011 nM.
